The text below walks through data of patent US8956589B2, “Imaging diagnostic agent and extracorporeal diagnostic agent for incurable neurological diseases” (Shiga University of Medical Science, priority 2009, dated 2015).

One data set has as its system senile plaque. The data set is described as follows: 19F-MR image measurement in amyloid precursor protein transgenic mouse (Tg2576). The conditions noted are these: tail vein, 8 mg/ml 250 μl, measured for 3 hours after 3 hours post administration. The class given is in vivo. On the procedure:
A quantity of 4.5 mg of compound (I) was measured, and 0.112 ml of Cremophol EL was added to the measured compound. The compound was dissolved by use of a glass stick while the mixture being heated. Then, 0.45 ml of saline was added to the mixture to prepare an administration solution (8 mg/ml).
This administration solution 250 μl was administered, in one shot (about 90 seconds), to the tail vein of an amyloid precursor protein transgenic mouse (Tg2576, created according to the method disclosed in Science, 274,99 (1996)) under anesthesia by pentobarbital sodium.
After the administration was ended, with the mouse under anesthesia, the head of the mouse was continuously measured in units of 1 hour by use of an MRI device. Then, pieces of data were added to create images. ^19F-MRI brain images were obtained by chemical shift imaging method (CSI method). The MRI device that was used was 7T Unity Inova MR Scanner (by Varian).

Data set [1] addresses T1, amyloid β peptide aggregates (Homo sapiens (Human), UniProt P05067). Put plainly: Quantity determination of amyloid β aggregates by flow cytometry with anti-Aβ antibody microspheres. The settings on record: FACS, 5 to 60 minutes at 4° C., background of nonspecific IgG1 microspheres subtracted. The method, then:
The washing operation was performed as follows: 0.75 mL of PBS-T was added, the resultant mixture was centrifuged at 10,000×G for 5 minutes, and then the supernatant was removed. […] During the reaction, the mixture was agitated every 5 to 15 minutes. After the reaction, the microspheres were washed 3 times by the same method above, then suspended in PBS-T 0.25 mL, and kept at 4° C. until they were used. Negative control microspheres were prepared by use of a nonspecific mouse IgG1 antibody (by SIGMA, No. M 9269, mouse myeloma-derived IgG1, 1 mg/mL) by the same method. […] By subtracting as a background the analysis value of the negative control microspheres to which the nonspecific mouse IgG1 antibody was bound, the number of counts of anti Aβ antibody-specific fluorescence positive microsphere particles was determined.
Background: In flow cytometry, cells or beads pass a laser one at a time.

Data set [2] has as its target amyloid β peptide aggregates (1-40) (Homo sapiens (Human), UniProt P05067). The class given is binding. The settings on record: aggregates 1 μM, thioflavin-T 3 μM, compound 0.02 to 20 μM, 30 minutes at 23° C., pH 7.4; read-out: Amyloid binding property (IC50). The method, then: The binding capacity of the compounds to an amyloid β peptide aggregate was quantitatively measured by a thioflavin-T fluorescence inhibition test. […] The resultant solution was cause to react for 30 minutes at 23° C. with the light shielded. Then, the fluorescence of thioflavin-T was measured under a condition of Ex=440 nm, Em=490 nm, Cutoff filter=475 nm. The IC50 values were calculated by using an analysis software, GraphPad PRISM Ver.5 (GraphPad Software, Inc.).

Data set [3] deals with T1, amyloid β peptide aggregates. Put plainly: Model experiment of in-vitro diagnostic agent (colour change of solution). On the procedure:
Amyloid β peptide aggregates were prepared by the method described in test example 6, and caused to precipitate in the solution by prolonging the reaction time. After the aggregates were prepared in this manner, the precipitation containing the amyloid β peptide aggregates and a supernatant not containing the amyloid β peptide aggregates were separated. The precipitation containing the amyloid aggregates was suspended at a concentration of 100 μM, in a buffer. Then, each of compounds 23 and 1 was dissolved at a concentration of 20 μg/ml in a 50 mM phosphate buffer (pH 7.5) containing 100 mM NaCl. For each compound, four kinds of liquid mixtures were prepared, that is, a liquid mixture obtained by adding 100 μl of a buffer into 100 μl of the compound containing solution (A of FIG. 13); a liquid mixture obtained by adding 100 μl of a buffer in which amyloid β peptides before agglutination reaction were dissolved, to 100 μl of the compound containing solution (B of FIG. 13); a liquid mixture obtained by adding 100 μl of a buffer in which amyloid β peptide aggregates were suspended, to 100 μl of the compound containing solution (C of FIG. 13); and a liquid mixture obtained by adding 100 μl of a buffer in which amyloid β peptide aggregates were suspended, to 100 μl of a buffer not containing a compound (D of FIG. 13). Then, the four kinds of liquid mixtures were left to stand at room temperature. […] Only the sample in which compound 1 and amyloid β peptide aggregates were mixed began to be stained in red after 5 minutes, and the color became gradually stronger and changed into strong red after about 30 minutes. […] When the absorption spectrum of the sample that had turned into red was measured, the peak had shifted towards a longer wavelength. […] As a result, it is considered that the keto/enol equilibrium in the solution was lost, and structural changes happened, that is, the keto bodies newly turned into enol bodies in the solution.

A further data set has as its system senile plaques. Put plainly: Brain tissue staining after in vivo administration. Details: species or system mouse. On the procedure:
The brain of the mouse scanned by ^19F-MRI in test example 2 was taken out and fixed for 2 days in a 4%-formalin solution, and then placed in a 15%-sucrose solution for cryoprotection. Then, a 20 μm-thick slice was created by a cryostat. Next, the slice was caused to react with a rabbit antihuman amyloid β polyclonal antibody (IBL, 0.2 μg/ml) at 4° C. overnight. Further, the sample was washed with PBS-T for 10 minutes 3 times, and then caused to react with Alexa 647 anti-rabbit IgG antibody (Molecular Probes, 500-fold dilution) for 4 hours at room temperature. This sample was washed with PBS-T for 10 minutes 3 times, and then counterstained with cresyl violet for 1 minute. Then, the sample was further washed with distilled water, and then enclosed with glycerol, and this sample was used for observation. The binding capacity of the compound to a senile plaque was observed by an inverted fluorescence microscope. It should be noted that a compound image was measured by use of the FITC filter and an amyloid β protein image was measured by means of the Cy5 filter. The same treatment was performed onto a normal mouse.

The target of data set [4] is T1, amyloid β peptide aggregates. Put plainly: Binding to and release from precipitated amyloid β peptide aggregates (absorbance of supernatant). The method, then: Each of compound 23, compound 1, and compound 24 is dissolved at a concentration of 2 μg/mL, in a phosphate buffer, and then amyloid β peptide aggregates are added to each solution, and the resultant solution is caused to react for 1 hour. Then, the solution is centrifuged for 10 minutes at 6,000 rpm, to separate the amyloid β peptide aggregates. A supernatant was removed, and an absorbance measurement was performed to measure the quantity of the compound that had not bound to the amyloid peptide aggregates and that were contained in the supernatant. The obtained quantity was subtracted from the original quantity of the compound, whereby the quantity of the compound that had bound to the amyloid β peptide aggregates was calculated.
Next, the precipitated amyloid β peptide aggregates were washed, a buffer was added thereto, and the quantity of the compound that got released was measured. Then, the rate of the compound that had bound to amyloid β peptide aggregates and then was eluted into the buffer was calculated using the original quantity of the compound as 100%.

Where [5] appears, read: compound 20 μg/ml solution mixed with amyloid β peptide aggregates, room temperature.

pIC50: −log10 of the molar value.

T1 sequence (P05067 672-711): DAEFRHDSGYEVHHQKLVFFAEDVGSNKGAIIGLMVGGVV
Sequence of amyloid β peptide aggregates (1-40) (P05067 672-711): as above

Take `COC(=O)CCC(C(=O)/C=C/c1ccc(O)c(OC(F)(F)F)c1)C(=O)/C=C/c1ccc(O)c(OC(F)(F)F)c1` [Compound 1, 1,7-bis(4′-hydroxy-3′-trifluoromethoxyphenyl)-4-methoxycarbonylethyl-1,6-heptadiene-3,5-dione]: the “19F-MRI signal in brain” value in the data set with senile plaque was “signals that are assumed to be corresponding to a senile plaque were detected in the brain”. Further, in data set [1], the “counts of fluorescence positive microsphere particles depending on aggregate concentration” value is “quantitativeness was confirmed”. For the same molecule, in data set [2], the pIC50 (commonly −log10 of the IC50, conventionally taken in molar units) was 6.36. Further, in data set [3] (setting [5]), the “time at which colour changed into strong red” value is “about 30 minutes” and the “time at which sample began to be stained in red” value is 5 min. In addition, in data set [3] (compound 20 μg/ml solution mixed with non-aggregated amyloid β peptides), the “colour of sample with amyloid β peptides before agglutination reaction” value is “did not change”. Besides, the “transmissiveness through the blood-brain barrier” value in the data set on senile plaques (Tg2576 mouse after i.v. administration) was “confirmed”. The “binding to senile plaques in vivo” value in the data set with senile plaques (brain slices of Tg2576 mouse after i.v. administration, fluorescence vs amyloid β antibody stain) was “sufficient binding”. Also, in data set [4] (compound 2 μg/mL in phosphate buffer, 1 hour reaction), the “binding rate to amyloid β peptide aggregates” value stood at 57%. For the same molecule, in data set [4] (washed precipitated aggregates, buffer added, original quantity as 100%), the “rate of compound released (eluted into buffer) from amyloid β peptide aggregates” value is given as “highest value”.
